This passage reports RP-LC retention time results from the METLIN SMRT retention time set (Domingo-Almenara et al. 2019).

A short description of this data set: gradient 5% acetonitrile 3 min, to 50% in 2 min, to 85% in 15 min, held 3 min, 100 µL/min. To be noted: column: Zorbax Extend-C18 2.1 x 50 mm; eluents: water / acetonitrile, 0.1% formic acid. An outline of the steps: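 Retention times come from adduct peaks that were picked computationally and then checked by hand. The standards, pure and pooled in mixtures of ~100 molecules, were run on a Zorbax Extend-C18 column (2.1 × 50 mm, 1.8 μm) at 100 μL/min with water and acetonitrile, each with 0.1% formic acid. Detection was by quadrupole time-of-flight mass spectrometry in positive and negative ionization mode, with a dead volume of 40 μL and a dwell volume of 900 μL.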
`O=C(c1cccs1)N1CCc2cc(-c3csc(C4CC4)n3)ccc21` gave an RP-LC retention time of 1150 s.
Regarding `CCOC(=O)c1noc2ncnc(Nc3ccccc3)c12`, the RP-LC retention time stood at 1000 s.
Then `COc1ccc(N2CC(c3noc(-c4ccc(C(C)(C)C)cc4)n3)CC2=O)cc1OC` (stereo not given), with 1140 s; and `O=C(N[C@H]1C[C@@H]2C[C@H]1N(C(=O)Nc1ccc3c(c1)CCC3)C2)c1ccccc1`, with 950 s; and `O=c1c2sccc2n(Cc2nc(-c3cccc(Br)c3)no2)c(=O)n1Cc1ccccc1`, with 1110 s.
As for `O=C(c1csc(-c2ccc(N3CCOCC3)nc2)n1)N1CCOCC1`, the RP-LC retention time was found to be 626 s.
In turn, `CC(C)(C)c1csc(-c2csc(S(=O)(=O)NCc3ccccc3)c2)n1` yielded an RP-LC retention time of 1230 s.
`CC1=C(C(=O)OCCc2ccccc2)C(c2ccc(C)s2)NC(=O)N1` (stereo not given) yielded an RP-LC retention time of 859 s.
The figure for `Cc1noc(C)c1-c1ccc(S(=O)(=O)Nc2ccc(F)c(F)c2)cc1` is 939 s; for `CCCS(=O)(=O)N1CC(=O)N(c2ccc(F)cc2C)C(C)(C(=O)NC2CCCCC2)C1` (stereo not given) it is 925 s.
For the compound `Cn1nnnc1SCC(=O)OCc1cc(-c2ccco2)on1`, the RP-LC retention time is 728 s.
The figure for `O=S(=O)(Nc1ccc(N2CCOCC2)cc1)c1ccc(-c2nnc(C3CCC3)o2)o1` is 828 s; for `CCN1c2ccccc2C(=O)NC12CCN(C(=O)NCCc1ccccc1)CC2` it is 773 s.
The figure for `COc1cc2ncc(S(=O)(=O)c3ccc(Cl)cc3)c(N3CCN(C)CC3)c2cc1OC` is 634 s; for `CNC(=O)c1c(C)nn(-c2ccccc2)c1-n1cccc1` it is 761 s.
The figure for `COc1ccc(Cn2nc3ccc(S(=O)(=O)N4CCOCC4)cn3c2=O)cc1` is 792 s; for `CCc1cc(C(=O)N2CCN(C(C)C)CC2)nc2cc(-c3ccccn3)nn12` it is 650 s.
The compound `CC(C)CC(=O)Nc1ccc(-c2nc(-c3ccccc3)co2)cc1` registered an RP-LC retention time of 1100 s.
The figure for `CCCNC(=O)c1nc2ccccn2c1-c1ccc(F)cc1` is 730 s; for `CC(Oc1ccccc1)c1nc(-c2ccc3c(c2)nnn3CCC(=O)N2CCOCC2)no1` (stereo not given) it is 852 s.
The figure for `CS(=O)(=O)N1CCCc2cc(C(=O)N3CCCCCC3)ccc21` is 800 s; for `O=C(NCc1ccc(F)cc1)C1CCc2nc(N3CCCCC3)ncc2C1` (stereo not given) it is 678 s; for `CC(C)N1C(=O)C(C)(C(=O)Nc2cccc(Cl)c2)Oc2cccnc21` (stereo not given) it is 1070 s.
The figure for `CCc1ccc(CNC(=O)C2CCN(c3cncnc3N3CCN(C)CC3)CC2)cc1` is 588 s; for `COc1ccc(-c2ccnn2-c2ccc(SCC(N)=O)nn2)cc1` it is 777 s.
The compound `O=C(Cc1ccsc1)Nc1cccn2ncnc12` came in with an RP-LC retention time of 699 s.
On to `Cc1ccc(CNC(=O)c2c(C)sc3ncnc(N4CCCCC4)c23)cc1`, for which the RP-LC retention time is 1070 s.
Regarding `CCOc1ccc(-c2cn3ccn(-c4cc(Cl)ccc4C)c(=O)c3n2)cc1`, the RP-LC retention time came to 934 s.
Regarding `Cc1ccc(CNC(=O)Cn2nc(N3CCCC3)c3ccccc3c2=O)cc1`, the RP-LC retention time was found to be 908 s.
Then `O=C(Cn1c(=O)c2cc(-c3ccco3)nn2c2ncccc21)NCCc1ccccc1`, with 797 s; and `CC(Nc1nc(N2CCCC2)nc2ccccc12)c1ccccc1` (stereo not given), with 781 s.
Then `Cc1cccc(C(=O)NCC2CCCN(S(=O)(=O)c3ccc4c(c3)CCCC4)C2)c1` (stereo not given), with 1150 s; and `COc1cc2c(cc1OC)C(C(=O)NCCCN1CCN(C)CC1)C(c1cccs1)N(C)C2=O` (stereo not given), with 572 s; and `O=C(NCc1ccc2[nH]c3c(c2c1)CCCC3)C1CC1`, with 735 s.
`CS(=O)(=O)N1CCC(C(=O)Nc2cc(N3CCOCC3)ncn2)CC1` gave an RP-LC retention time of 563 s.
The compound `CCc1nn(CC)c(=O)c2cc(S(=O)(=O)NC(C)c3ccccc3)cn12` (stereo not given) gave an RP-LC retention time of 964 s.
Then `Cc1nc2c(sc3nc(-c4ccccc4)ccc32)c(=O)n1CC(=O)NCCc1ccc(Cl)cc1`, with 1080 s; and `Cc1cccc(CS(=O)(=O)N(CCc2cccs2)Cc2cccnc2)c1`, with 691 s.
Then `COc1ccc(OC)c(NS(=O)(=O)c2cc(-c3cc(C(F)(F)F)on3)sc2C)c1`, with 1130 s; and `CCc1ccc(S(=O)(=O)NCCc2cn(C)c3ncccc23)cc1`, with 786 s.
Regarding `O=C(Nc1ccc2c(c1)OCCO2)C(=O)c1cn(CC(=O)N2CCOCC2)c2ccccc12`, the RP-LC retention time was determined as 850 s.
Then `CCOc1ccc(S(=O)(=O)N2CCC(C(=O)NCCc3csc(-c4ccccc4)n3)CC2)cc1`, with 997 s; and `CCNC(=O)N1CCCC(Cc2nncn2C(C)C)C1` (stereo not given), with 494 s; and `Cc1ccccc1NC(=O)N1c2ccccc2NC2=C(C(=O)CCC2)C1c1ccco1` (stereo not given), with 817 s.
The figure for `COC(=O)c1ccc(NC(=O)N(C)CCc2noc(-c3ccccc3)n2)cc1` is 840 s; for `CSc1ccccc1NC(=O)C(C)Cn1nc(-c2ccco2)ccc1=O` (stereo not given) it is 707 s.
The figure for `O=C(c1cc(C2CC2)[nH]n1)N1CCN(c2ccc(N3CCOCC3)nn2)CC1` is 577 s; for `CCCN1C(=O)c2cc(S(=O)(=O)Nc3cc(F)ccc3C)ccc2Oc2cccnc21` it is 1120 s; for `CCc1nc(N)n(CC(=O)Nc2ccc(F)cc2C)c(=O)c1C` it is 626 s.
For the compound `O=C(c1ccc(OCC2CCN(C(=O)c3ccsc3)CC2)cc1)N1CCOCC1`, the RP-LC retention time turned out to be 678 s.
For `CCC(C)NC(=O)Cn1c(=O)cc(-c2nc(C(C)C)no2)c2ccccc21` (stereo not given), the RP-LC retention time stood at 707 s.
The figure for `Cc1ccc(-c2cn3c(CC(=O)Nc4ccc(Cl)cc4F)csc3n2)cc1C` is 966 s.
`O=C(NC1CCN(c2cc(-c3ccc(Cl)cc3)[nH]n2)C1)c1ccc2cc[nH]c2c1` (stereo not given) came in with an RP-LC retention time of 762 s.
For the compound `Cn1nnnc1SCC(=O)NCCCC(=O)Nc1cccc2cccnc12`, the RP-LC retention time worked out at 620 s.
Compound `Cc1csc(-c2cc(S(=O)(=O)N(C)Cc3ccco3)c(C)n2C)n1` had an RP-LC retention time of 1000 s.
The figure for `CCOC(=O)CC(NC(=O)CCc1c(C)nc2ncnn2c1C)c1ccc(C)cc1` (stereo not given) is 695 s; for `Cc1ccc(Nc2c(-c3ccc(O)cc3)nc3c(C)cccn23)cc1` it is 676 s; for `c1ccc(-c2noc(-c3ccc(OC4CNC4)cc3)n2)cc1` it is 674 s.
Take `O=c1c2cc(-c3ccc(F)cc3)nn2cnn1Cc1nc(-c2cccc(C(F)(F)F)c2)no1`: the RP-LC retention time came out at 1200 s.
`CC(C)OCCCNC(=O)C1CCN(S(=O)(=O)c2ccc(-c3noc(C4CC4)n3)cc2)CC1` had an RP-LC retention time of 890 s.
For the compound `CCCNC(=O)CCc1c(-c2ccc(F)cc2)nc2ccccn12`, the RP-LC retention time was found to be 608 s.
Then `CSc1ccc(-c2nc3cnccn3c2Nc2ccc(C)cc2Br)cc1`, with 1140 s; and `O=C(Cn1cnc2ccccc21)NCCCn1ccc2ccccc21`, with 605 s; and `COc1ccc(CC(=O)N2CCC3(C2)C(=O)N(C)c2ccc(OC)cc23)c(Cl)c1` (stereo not given), with 825 s.
The figure for `O=C(CN1CCN(Cc2ccccc2F)C1=O)NC1CCN(Cc2ccccc2)CC1` is 610 s; for `COc1ccc(CNC(=O)Cn2c(N)nc(C)cc2=O)cc1` it is 603 s.
Consider `O=c1c2sccc2n(Cc2nc(-c3ccc(C(F)(F)F)cc3)no2)c(=O)n1CCc1ccccc1`, for which the RP-LC retention time came out at 1270 s.
The figure for `CCN1CCN(CCNC(=O)C2CCN(C(=O)c3ccc(-n4ccc5ccccc54)s3)CC2)CC1` is 597 s; for `COc1ccccc1C1CC(=O)Nc2c(S(=O)(=O)c3ccccc3)csc21` (stereo not given) it is 946 s; for `CCCN1C(=O)c2cccnc2Sc2cc(C(=O)N3CCOCC3)ccc21` it is 682 s.
Then `COc1ccccc1CNc1nccc(-n2nc(C)cc2C)n1`, with 840 s; and `O=C(Nc1ccc2sccc2c1)c1ccc(Cl)s1`, with 996 s.
Then `COc1ccccc1-c1nc(Cn2ccnc2C)no1`, with 584 s; and `CCCNC(=O)C1CCN(c2ccc(SCC(=O)NCCc3ccc(Cl)cc3)nn2)CC1`, with 663 s.
On to `Cc1ccnc(Nc2nc(CC(=O)N3CCN(S(C)(=O)=O)CC3)cs2)c1`, for which the RP-LC retention time worked out at 565 s.
For `CC(NC(=O)Cc1nnc(-c2ccc3ncccc3c2)o1)c1ccccc1` (stereo not given), the RP-LC retention time was 690 s.
Compound `CCCS(=O)(=O)N1CCC(Oc2nccnc2N2CCOCC2)C1` (stereo not given) showed an RP-LC retention time of 761 s.
The compound `CSc1cccc(NC(=O)N2CCC(CC(=O)N3CCCCC3)CC2)c1` registered an RP-LC retention time of 789 s.
For the compound `Cc1cccc(C(=O)Nc2c(-c3ccccc3)nc3cc(C)ccn23)c1`, the RP-LC retention time came to 674 s.
The figure for `CCCN(C)C(=O)c1cc(=O)[nH]c2ccccc12` is 614 s.
